Data: patent publication US20210379214A1, “Phospholipid-Free Small Unilamellar Vesicles (PFSUVS) for Drug Delivery” (The University of British Columbia, priority 2018, published 2021)
Values after ≈ are worked out from the molar mass of the structure shown.

Assays:
EMT6 cells [1] = assay: Cellular uptake of DOX by confocal laser scanning microscopy; format: cell-based, murine; details: for Mean Fluorescence Intensity: 5 μg DOX/ml
Experimental: (§1) EMT6 (murine breast tumor) and the resistant variant, EMT6/AR1 cells overexpressing P-glycoprotein were purchased from the National Cancer Institute (Bethesda, Md.). EMT6 cells were cultured in DMEM medium with 10% FBS, penicillin (100 U/ml) and streptomycin (100 μg/ml) at 37° C. with 5% CO2.
Cellular uptake of DOX was imaged by confocal laser scanning microscopy (CLSM). EMT6 cells were seeded on a cover slip placed in a 24-well plate (1×10^5 cell/well) for 24 h prior to the study. […] The medium was removed and the cells were washed with PBS twice before fixation with 10% of formaldehyde at room temperature for 20 min. The cover slip was then washed for another 2 times with PBS and mount on a glass slide with fluorescence shield containing DAPI. The cells were imaged under a Zeiss™ confocal microscope (LSM 700™) and the image was analyzed using the CellProfiler™ (Version 3.0) software.

[2] = tested on: EMT6 murine breast cancer cells; assay: In vitro cytotoxicity (MTT assay); format: cell-based
Experimental: as §1
EMT6 cells were seeded on a 96-well plate (1000 cells/well). Wells with medium only were used as blank. […] Two days later, 5 μl of MTT solution (5 mg/ml) was added to each well, followed by 4-h incubation. The medium was removed and 100 μl DMSO was added into each well, followed by incubation at room temperature for 15 min. Absorbance at 540 nm in each well was then measured by a plate reader. The cell viability was calculated as (Abs−Abblank)/(Ab100−Abblank)×100%, where Abs is the Absorbance540 nm for the experimental group, Abblank is the Absorbance540 nm of sample without cells and Ab100 is the Absorbance540 nm of sample without treatment.

EMT6 cells [3] = assay: Cellular uptake in the presence of apolipoprotein; format: cell-based, murine; details: 4 hours, apolipoprotein 5, 20, 100 μg/ml
Experimental: EMT6 cells were seeded in 12 wells on cover slip over night to be confluent. […] After treatment, the cover slips were fixed with 10% and were then mounted on slide with a DAPI contained fluorescence shield. The slides were imaged under a confocal microscopy. Doxorubicin signal in those images were then quantified by Cellprofiler™.

COc1cccc2c1C(=O)c1c(O)c3c(c(O)c1C2=O)C[C@@](O)(C(=O)CO)C[C@@H]3O[C@H]1C[C@H](N)[C@H](O)[C@H](C)O1 [DOX, doxorubicin]
change of DOX cellular uptake in the presence of serum versus serum free (EMT6 cells [1]; EMT6 cells, 4 hr): did not significantly change | Mean Fluorescence Intensity (EMT6 cells [1]; EMT6 cells, 4 hr, 10% Serum): 0.247 ± 0.021 | Mean Fluorescence Intensity (EMT6 cells [1]; EMT6 cells, 4 hr, Without Serum): 0.258 ± 0.014 | increased cellular uptake relative to PFSUVs-DOX and PLD (EMT6 cells [1]; absence of serum): ~15 fold | in vitro potency, fold more effective than PFSUVs-dox [2]: 4 fold | IC50 ([2]; MTT, curve fitting): 0.025 µg/mL (≈ 0.046 µM) | effect of increasing concentrations of apolipoproteins on internalization (EMT6 cells [3]): no influence
